Target: T1, human CRTH2 (Homo sapiens, UniProt Q9Y5Y4)
T1 construct: expressed in transfected cells
T1 sequence (Q9Y5Y4 1-395): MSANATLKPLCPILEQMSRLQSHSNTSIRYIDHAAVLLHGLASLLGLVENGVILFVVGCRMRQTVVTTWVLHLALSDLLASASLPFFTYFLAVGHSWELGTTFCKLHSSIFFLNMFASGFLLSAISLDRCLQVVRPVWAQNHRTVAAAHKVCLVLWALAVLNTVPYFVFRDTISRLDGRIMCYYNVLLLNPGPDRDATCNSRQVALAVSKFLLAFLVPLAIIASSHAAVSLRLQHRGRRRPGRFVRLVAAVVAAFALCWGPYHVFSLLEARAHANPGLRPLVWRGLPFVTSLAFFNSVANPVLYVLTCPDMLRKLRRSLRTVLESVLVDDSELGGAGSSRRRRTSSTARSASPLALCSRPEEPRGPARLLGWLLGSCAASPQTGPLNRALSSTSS
Assay: Human CRTH2 Receptor Binding Assay
Settings: whole cell binding, CHO-K1 cells expressing human CRTH2, 20 nM [3H]ramatroban as competing radioligand
Source text: A whole cell receptor binding assay using [^3H]ramatroban as the competing radioactive ligand was employed to evaluate the compound binding activity to human CRTH2. The radioactive ligand [^3H]ramatroban was synthesized according to Sugimoto et. al. (Eur. J. Pharmacol. 524, 30-37, 2005) to a specific activity of 42 Ci/mmol.
A cell line stably expressing human CRTH2 was established by transfecting CHO-K1 cells with two mammalian expression vectors that harbored human CRTH2 and G-alpha16 cDNAs, respectively, using FuGene® 6 transfection reagent (from Roche). Stable clones expressing CRTH2 were selected by staining each clone with BM16 (BD Pharmingen™ from BD Biosciences, a division of Becton, Dickinson and Company), which is a rat monoclonal antibody to human CRTH2. The cells were maintained as monolayer cultures in Ham's F-12 medium containing 10% fetal bovine serum, 100 units/mL penicillin, 100 μg/mL streptomycin, 2 mM glutamine, 0.5 mg/mL G418 (geneticin) for CRTH2, and 0.2 mg/mL hygromycin-B (for G-alpha 16). For whole cell receptor binding assay, the monolayer cells were rinsed once with PBS (phosphate buffered saline), dissociated using ethylenediaminetetraacetate (Versene™ EDTA from the Lonza Inc.), and suspended in PBS containing 10 mM MgCl2 and 0.06% BSA (bovine serum albumin) at 1.5×10^6 cells/mL.
The binding reactions (0.2 mL) were performed in 96-well plates at room temperature in PBS containing 1.5×10^5 cells, 10 mM MgCl2, 0.06% BSA, 20 nM [^3H]ramatroban, and test compound at various concentrations. After 1 hour of binding reactions, the cells were harvested on GF™/B filter microplates (microtiter plates with embedded glass fiber from PerkinElmer, Inc.) and washed 5 times with PBS using a Filtermate™ Harvester (a cell harvester that harvests and washes cells from microplates from PerkinElmer, Inc.). The radioactivities bound to the cells were determined using a microplate scintillation counter (TopCount® NXT, from PerkinElmer, Inc.) after adding 50 μL of Microscint™ 20 scintillation fluid (from PerkinElmer, Inc.) to each well of the filter plates. The radioactivity from non-specific binding was determined by replacing compound with 10 μM of 15(R)-15-methyl PGD2 (from Cayman Chemical Company) in the reaction mixtures. The radioactivity bound to the cells in the absence of compound (total binding) was determined by replacing compound with 0.25% of DMSO (dimethyl sulfoxide) in the reaction mixture. Specific binding data were obtained by subtracting the radioactivity of non-specific binding from each binding data.
The IC50 value is defined as the concentration of the tested compound that is required for 50% inhibition of total specific binding. In order to calculate the IC50 value, the percent inhibition data were determined for 7 concentrations for each compound. The percent inhibition for a compound at each concentration was calculated according to the following formula, [1-(specific binding in the presence of compound)/(total specific binding)]×100. The IC50 value was then obtained by fitting the percent inhibition data to a sigmoidal dose-response (4 parameter logistic) model in the XLfit® software Excel add-in program [from ID Business Solutions Ltd., model 205, where F(x)=(A+(B−A)/(1+((C/x)^D)))].

IC50 | SMILES
70.7 nM | O=C(O)COc1cccc2c1CCCC2NS(=O)(=O)c1ccc(-c2ccc(OC(F)(F)F)cc2)cn1 (stereo not shown) [Example 3-62, {5-[5-(4-Trifluoromethoxy-phenyl)-pyridine-2-sulfonylamino]-5,6,7,8-tetrahydro-naphthalen-1-yloxy}-acetic acid]
13.5 nM | C[S+]([O-])c1cccc(-c2ccc(S(=O)(=O)N[C@@H]3CCCc4c(OCC(=O)O)cccc43)cc2)c1 (stereo partly drawn) [Example 4-1, [(R)-5-(3′-Methanesulfinyl-biphenyl-4-sulfonylamino)-5,6,7,8-tetrahydro-naphthalen-1-yloxy]-acetic acid]
147 nM | CN([C@@H]1CCCc2c(OCC(=O)O)cccc21)S(=O)(=O)c1ccc(Oc2ccc(Cl)cc2)c(Cl)c1 [Example 6-1, ((R)-5-{[3-Chloro-4-(4-chloro-phenoxy)-benzenesulfonyl]-methyl-amino}-5,6,7,8-tetrahydro-naphthalen-1-yloxy)-acetic acid]
2.9 nM | CN([C@@H]1CCCc2c(OCC(=O)O)cccc21)S(=O)(=O)c1cc(C(F)(F)F)cc(S(=O)(=O)c2ccc(Cl)cc2)c1 [Example 8-1, ((R)-5-{[3-(4-Chloro-benzenesulfonyl)-5-trifluoromethyl-benzenesulfonyl]-methyl-amino}-5,6,7,8-tetrahydro-naphthalen-1-yloxy)-acetic acid]
